In ChEMBL document CHEMBL1201862, “PubChem BioAssay data set” (2004):
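A five-concentration, 48-hour dose response in 96-well plates underlies each endpoint, interpolated linearly between surrounding concentrations. The concentration for 50% growth inhibition is given as GI50.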 Active and inactive are the calls of the source. Rule as the data show it: active = GI50 up to about 1.1 µM and inactive = higher.

What was measured:
Assay in all cases: growth of human tumour cells (NCI), 48 h
KM-20L2 = test system: KM-20L2
SR = test system: SR
DMS-114 = test system: DMS-114
ACHN = test system: ACHN
SW-620 = test system: SW-620
SF-539 = test system: SF-539
HOP-92 = test system: HOP-92
LOX IMVI = test system: LOX IMVI
KM12 = test system: KM12
HOP-62 = test system: HOP-62
SK-MEL-2 = test system: SK-MEL-2
UACC-62 = test system: UACC-62
SK-MEL-28 = test system: SK-MEL-28
UACC-257 = test system: UACC-257
SNB-75 = test system: SNB-75
786-0 = test system: 786-0
M19-MEL = test system: M19-MEL
SNB-78 = test system: SNB-78
M14 = test system: M14
A549 = test system: A549
LXFL 529 = test system: LXFL 529
HCT-15 = test system: HCT-15
COLO 205 = test system: COLO 205
CCRF-CEM = test system: CCRF-CEM
HOP-18 = test system: HOP-18
CAKI-1 = test system: CAKI-1
NCI-H23 = test system: NCI-H23
DLD-1 = test system: DLD-1
OVCAR-5 = test system: OVCAR-5
OVCAR-4 = test system: OVCAR-4
TK-10 = test system: TK-10
IGROV-1 = test system: IGROV-1
SF-295 = test system: SF-295
SF-268 = test system: SF-268
NCI-H460 = test system: NCI-H460
NCI-H226 = test system: NCI-H226
K562 = test system: K562
SK-MEL-5 = test system: SK-MEL-5
XF498 = test system: XF498
SN12C = test system: SN12C
EKVX = test system: EKVX
RXF 393 = test system: RXF 393
U-251 = test system: U-251
OVCAR-8 = test system: OVCAR-8
OVCAR-3 = test system: OVCAR-3
UO-31 = test system: UO-31
HT-29 = test system: HT-29
DMS-273 = test system: DMS-273
MOLT-4 = test system: MOLT-4
HCT-116 = test system: HCT-116
SK-OV-3 = test system: SK-OV-3
HCC 2998 = test system: HCC 2998
RPMI-8226 = test system: RPMI-8226
SNB-19 = test system: SNB-19
HL-60 = test system: HL-60
Malme-3M = test system: Malme-3M
NCI-H522 = test system: NCI-H522
Hs-578T = test system: Hs-578T
NCI/ADR-RES = test system: NCI/ADR-RES
MDA-MB-435 = test system: MDA-MB-435
MDA-MB-231 = test system: MDA-MB-231
BT-549 = test system: BT-549
A498 = test system: A498
PC-3 = test system: PC-3
MCF7 = test system: MCF7
T47D = test system: T47D
DU-145 = test system: DU-145
MDA-N = test system: MDA-N

## O=c1cnn2c(n1)sc1ccc3ccccc3c12
KM-20L2
  GI50: > 100 µM (inactive)
SR
  GI50: 59.4 µM (inactive)
DMS-114
  GI50: > 100 µM (inactive)
ACHN
  GI50: > 100 µM (inactive)
SW-620
  GI50: > 100 µM (inactive)
SF-539
  GI50: > 100 µM (inactive)
HOP-92
  GI50: > 100 µM (inactive)
LOX IMVI
  GI50: 76.6 µM (inactive)
KM12
  GI50: > 100 µM (inactive)
HOP-62
  GI50: 98.9 µM (inactive)
SK-MEL-2
  GI50: > 100 µM (inactive)
UACC-62
  GI50: > 100 µM (inactive)
SK-MEL-28
  GI50: > 100 µM (inactive)
UACC-257
  GI50: > 100 µM (inactive)
SNB-75
  GI50: > 100 µM (inactive)
786-0
  GI50: > 100 µM (inactive)
M19-MEL
  GI50: > 100 µM (inactive)
SNB-78
  GI50: > 100 µM (inactive)
M14
  GI50: > 100 µM (inactive)
A549
  GI50: 65.6 µM (inactive)
LXFL 529
  GI50: > 100 µM (inactive)
HCT-15
  GI50: > 100 µM
COLO 205
  GI50: > 100 µM (inactive)
CCRF-CEM
  GI50: 63.5 µM (inactive)
HOP-18
  GI50: > 100 µM (inactive)
CAKI-1
  GI50: > 100 µM (inactive)
NCI-H23
  GI50: > 100 µM (inactive)
DLD-1
  GI50: > 100 µM (inactive)
OVCAR-5
  GI50: > 100 µM (inactive)
OVCAR-4
  GI50: > 100 µM (inactive)
TK-10
  GI50: > 100 µM (inactive)
IGROV-1
  GI50: > 100 µM (inactive)
SF-295
  GI50: > 100 µM (inactive)
SF-268
  GI50: > 100 µM (inactive)
NCI-H460
  GI50: 61.2 µM (inactive)
NCI-H226
  GI50: > 100 µM (inactive)
K562
  GI50: > 100 µM (inactive)
SK-MEL-5
  GI50: > 100 µM (inactive)
XF498
  GI50: > 100 µM (inactive)
SN12C
  GI50: > 100 µM (inactive)
EKVX
  GI50: 25.1 µM (inactive)
RXF 393
  GI50: > 100 µM (inactive)
U-251
  GI50: > 100 µM (inactive)
OVCAR-8
  GI50: > 100 µM (inactive)
OVCAR-3
  GI50: > 100 µM (inactive)
UO-31
  GI50: > 100 µM (inactive)
HT-29
  GI50: > 100 µM (inactive)
DMS-273
  GI50: > 100 µM (inactive)
MOLT-4
  GI50: 30.1 µM (inactive)
HCT-116
  GI50: 87.9 µM (inactive)
SK-OV-3
  GI50: > 100 µM (inactive)
HCC 2998
  GI50: > 100 µM (inactive)
RPMI-8226
  GI50: > 100 µM (inactive)
SNB-19
  GI50: > 100 µM (inactive)
HL-60
  GI50: 83.9 µM (inactive)
Malme-3M
  GI50: > 100 µM (inactive)

## COC(=O)/C(C)=C(/CCC1(C)OCCO1)O[Si](C)(C)C
KM-20L2
  GI50: > 100 µM (inactive)
DMS-114
  GI50: > 100 µM (inactive)
ACHN
  GI50: > 100 µM (inactive)
SW-620
  GI50: > 100 µM (inactive)
SF-539
  GI50: > 100 µM (inactive)
HOP-92
  GI50: > 100 µM (inactive)
LOX IMVI
  GI50: > 100 µM (inactive)
KM12
  GI50: > 100 µM (inactive)
HOP-62
  GI50: > 100 µM (inactive)
SK-MEL-2
  GI50: > 100 µM (inactive)
UACC-62
  GI50: > 100 µM (inactive)
UACC-257
  GI50: > 100 µM (inactive)
SNB-75
  GI50: 20.5 µM (inactive)
786-0
  GI50: > 100 µM (inactive)
M19-MEL
  GI50: > 100 µM (inactive)
SNB-78
  GI50: > 100 µM (inactive)
M14
  GI50: > 100 µM (inactive)
A549
  GI50: > 100 µM (inactive)
LXFL 529
  GI50: > 100 µM (inactive)
HCT-15
  GI50: > 100 µM
COLO 205
  GI50: > 100 µM (inactive)
CCRF-CEM
  GI50: > 100 µM (inactive)
HOP-18
  GI50: > 100 µM (inactive)
CAKI-1
  GI50: > 100 µM (inactive)
NCI-H23
  GI50: > 100 µM (inactive)
DLD-1
  GI50: > 100 µM (inactive)
OVCAR-5
  GI50: > 100 µM (inactive)
OVCAR-4
  GI50: > 100 µM (inactive)
TK-10
  GI50: > 100 µM (inactive)
IGROV-1
  GI50: > 100 µM (inactive)
SF-295
  GI50: > 100 µM (inactive)
SF-268
  GI50: > 100 µM (inactive)
NCI-H460
  GI50: 47.1 µM (inactive)
K562
  GI50: > 100 µM (inactive)
SK-MEL-5
  GI50: > 100 µM (inactive)
XF498
  GI50: > 100 µM (inactive)
SN12C
  GI50: > 100 µM (inactive)
EKVX
  GI50: > 100 µM (inactive)
RXF 393
  GI50: > 100 µM (inactive)
U-251
  GI50: > 100 µM (inactive)
OVCAR-8
  GI50: > 100 µM (inactive)
OVCAR-3
  GI50: > 100 µM (inactive)
UO-31
  GI50: 95.3 µM (inactive)
HT-29
  GI50: > 100 µM (inactive)
DMS-273
  GI50: > 100 µM (inactive)
MOLT-4
  GI50: > 100 µM (inactive)
HCT-116
  GI50: > 100 µM (inactive)
SK-OV-3
  GI50: > 100 µM (inactive)
HCC 2998
  GI50: > 100 µM (inactive)
RPMI-8226
  GI50: > 100 µM (inactive)
SNB-19
  GI50: > 100 µM (inactive)
HL-60
  GI50: > 100 µM (inactive)
Malme-3M
  GI50: > 100 µM (inactive)

## CNc1cccc(-c2cc(O)c3cc4c(cc3n2)OCO4)c1
NCI-H522
  GI50: 0.127 µM (active)
Hs-578T
  GI50: 0.269 µM (active)
NCI/ADR-RES
  GI50: 0.199 µM (active)
SR
  GI50: 0.0407 µM (active)
DMS-114
  GI50: 0.723 µM (active)
ACHN
  GI50: 0.883 µM (active)
MDA-MB-435
  GI50: 0.0378 µM (active)
SW-620
  GI50: 0.283 µM (active)
SF-539
  GI50: 0.198 µM (active)
HOP-92
  GI50: 0.533 µM (active)
MDA-MB-231
  GI50: 0.407 µM (active)
BT-549
  GI50: 0.394 µM (active)
LOX IMVI
  GI50: 0.372 µM (active)
KM12
  GI50: 0.177 µM (active)
HOP-62
  GI50: 0.409 µM (active)
A498
  GI50: 0.307 µM (active)
SK-MEL-2
  GI50: 0.385 µM (active)
PC-3
  GI50: 0.254 µM (active)
UACC-62
  GI50: 0.153 µM (active)
SK-MEL-28
  GI50: 0.859 µM (active)
SNB-75
  GI50: 1.8 µM (inactive)
786-0
  GI50: 0.334 µM (active)
M19-MEL
  GI50: 0.445 µM (active)
SNB-78
  GI50: 0.318 µM (active)
M14
  GI50: 0.224 µM (active)
A549
  GI50: 0.664 µM (active)
LXFL 529
  GI50: 0.119 µM (active)
HCT-15
  GI50: 0.272 µM
COLO 205
  GI50: 0.167 µM (active)
CCRF-CEM
  GI50: 0.236 µM (active)
HOP-18
  GI50: 0.881 µM (active)
MCF7
  GI50: 0.293 µM (active)
CAKI-1
  GI50: 0.237 µM (active)
NCI-H23
  GI50: 0.436 µM (active)
DLD-1
  GI50: 0.181 µM (active)
OVCAR-5
  GI50: 1.79 µM (inactive)
OVCAR-4
  GI50: > 20.7 µM (inactive)
TK-10
  GI50: 1.42 µM (inactive)
IGROV-1
  GI50: 0.437 µM (active)
SF-295
  GI50: 2.28 µM (inactive)
SF-268
  GI50: 1.05 µM (active)
NCI-H460
  GI50: 0.436 µM (active)
NCI-H226
  GI50: 0.404 µM (active)
K562
  GI50: 0.201 µM (active)
SK-MEL-5
  GI50: 0.0847 µM (active)
XF498
  GI50: 3.82 µM (inactive)
SN12C
  GI50: 0.553 µM (active)
RXF 393
  GI50: 0.213 µM (active)
U-251
  GI50: 0.267 µM (active)
T47D
  GI50: 52 µM (inactive)
OVCAR-8
  GI50: 0.409 µM (active)
OVCAR-3
  GI50: 0.126 µM (active)
UO-31
  GI50: 0.509 µM (active)
DU-145
  GI50: 0.303 µM (active)
HT-29
  GI50: 0.3 µM (active)
DMS-273
  GI50: 0.35 µM (active)
MOLT-4
  GI50: 0.581 µM (active)
HCT-116
  GI50: 0.236 µM (active)
SK-OV-3
  GI50: 0.256 µM (active)
MDA-N
  GI50: 0.0296 µM (active)
HCC 2998
  GI50: 0.322 µM (active)
RPMI-8226
  GI50: 0.358 µM (active)
SNB-19
  GI50: 0.432 µM (active)
HL-60
  GI50: 0.198 µM (active)
Malme-3M
  GI50: 0.168 µM (active)
